Results reported in article PMC4850295, “Using a Genetically Encoded Sensor to Identify Inhibitors of Toxoplasma gondii Ca^2+ Signaling” (The Journal of Biological Chemistry, 2016).

Test system: T1, GCaMP5-expressing T. gondii
T1 construct: whole extracellular parasites expressing GCaMP5 Ca2+ sensor
Set-up: species or system GCaMP5-expressing Toxoplasma gondii, extracellular; GCaMP5 fluorescence (cytosolic Ca2+) after 100 uM zaprinast in compound-pretreated extracellular parasites, background-subtracted, relative to zaprinast alone
Details: 100 uM zaprinast stimulation; 10 min pretreatment; mean of two replicates; 0.23 h
Experimental: GCaMP5-expressing parasites were suspended in Ringer's solution at 4 × 10^7 parasites/ml, and 50 μl of parasites were applied to each well of a 96-well plate (Costar, catalog no. 3631). […] Parasites were then treated with 100 μM zaprinast or 0.1% DMSO as a vehicle control and incubated at 37 °C with 5% CO2 for an additional 4 min before measuring fluorescence with excitation and emission wavelengths of 485 and 525 nm, respectively, on a SpectraMax M3 (Molecular Devices). Basal fluorescence, measured from untreated parasites, was subtracted from all values, and results were expressed as -fold change from parasites treated only with zaprinast. Z′ factors were determined from (i) parasites treated with zaprinast versus untreated parasites and (ii) parasites treated with a final concentration of 1 μM Cpd2 or a vehicle control followed by zaprinast, using the formula, Z′ = 1 − 3(σp + σn)/(|μp − μn|), where σp and σn indicate S.D. values of positive and negative controls, and μp and μn indicate the means of positive and negative controls, respectively. […] We predicted that the zaprinast response measured in GCaMP5-expressing parasites could form the basis for a phenotypic screen. Such a screen would benefit from the known importance of Ca^2+ signaling in parasite biology along with the reported success rate of cell-based phenotypic assays. We designed a screen wherein extracellular GCaMP5-expressing parasites were pretreated with compounds for 10 min before stimulation with zaprinast, and parasite fluorescence was measured 4 min later. We expected that compounds that interfered with the zaprinast response would reduce fluorescence. We calculated a Z′-factor for this screen to determine its dynamic range and suitability to high throughput screening. To do so, we compared zaprinast-treated parasites to untreated parasites or those pretreated with the PKG inhibitor Compound 2 (Cpd2) ([55]). […] We obtained the compound libraries published kinase inhibitor sets PKIS1 ([57]) and PKIS2 (unpublished), from GlaxoSmithKline and applied our phenotypic screen to the 823 ATP mimetics represented in these collections (Fig. 2B and supplemental Table S1). The compounds were screened at a single 10 μM dose with two biological replicates.

Row | SMILES | fold change in fluorescence relative to zaprinast alone
1 | COC(=O)C(Cc1ccccc1)NC(=O)NC1CCN(c2ccnc(Nc3ccc(F)cc3)n2)C1 (stereo not drawn) [GSK1379714A] | 0.7659
2 | CCCc1ccc(S(=O)(=O)NC2CCN(c3ccnc(Nc4ccc(F)cc4)n3)C2)cc1 (stereo not drawn) [GSK1379715A] | 0.5743
3 | O=C(NC1CCN(c2ccnc(Nc3ccc(F)cc3)n2)C1)c1cc2ccccc2s1 (stereo not drawn) [GSK1379716A] | 1.103
4 | Cn1cncc1C(=O)NC1CCN(c2ccnc(Nc3ccc(F)cc3)n2)C1 (stereo not drawn) [GSK1379717A] | 1.089
5 | Cc1ccc(C)c(NC(=O)NC2CCN(c3ccnc(Nc4ccc(F)cc4)n3)C2)c1 (stereo not drawn) [GSK1379720A] | 1.268
6 | COc1cccc(NC(=O)NC2CCN(c3ccnc(Nc4ccc(F)cc4)n3)C2)c1 (stereo not drawn) [GSK1379721A] | 0.358
7 | O=C(Nc1ccccc1F)NC1CCN(c2ccnc(Nc3ccc(F)cc3)n2)C1 (stereo not drawn) [GSK1379722A] | 0.7204
8 | COc1cccc(CNC(=O)NC2CCN(c3ccnc(Nc4ccc(F)cc4)n3)C2)c1 (stereo not drawn) [GSK1379723A] | 0.5252
9 | O=C(Nc1ccc2c(c1)OCO2)NC1CCN(c2ccnc(Nc3ccc(F)cc3)n2)C1 (stereo not drawn) [GSK1379724A] | 0.9401
10 | COC(=O)c1cccc(NC(=O)NC2CCN(c3ccnc(Nc4ccc(F)cc4)n3)C2)c1 (stereo not drawn) [GSK1379725A] | 0.2001
11 | COc1ccc(CNC(=O)NC2CCN(c3ccnc(Nc4ccc(OC)cc4)n3)C2)cc1 (stereo not drawn) [GSK1379727A] | 1.253
12 | COc1ccc(Nc2nccc(N3CCC(NS(=O)(=O)c4ccc(NC(C)=O)cc4)C3)n2)cc1 (stereo not drawn) [GSK1379729A] | 1.531
13 | COc1ccc(Nc2nccc(N3CCC(NC(=O)c4cccc(C#N)c4)C3)n2)cc1 (stereo not drawn) [GSK1379730A] | 0.96
14 | COc1ccc(Nc2nccc(N3CCC(NC(=O)Nc4cccc(C(C)=O)c4)C3)n2)cc1 (stereo not drawn) [GSK1379731A] | 0.6491
15 | COc1ccc(Nc2nccc(N3CCC(NC(=O)c4cccc(NC(C)=O)c4)C3)n2)cc1 (stereo not drawn) [GSK1379732A] | 1.077
16 | COc1ccc(Nc2nccc(N3CCC(NC(=O)C(C)c4ccc(Cl)cc4)C3)n2)cc1 (stereo not drawn) [GSK1379735A] | 0.6825
17 | CCCc1ccc(S(=O)(=O)NC2CCN(c3ccnc(Nc4ccc(OC)cc4)n3)C2)cc1 (stereo not drawn) [GSK1379737A] | 0.6293
18 | COc1ccc(Nc2nccc(N3CCC(NC(=O)c4cc5ccccc5s4)C3)n2)cc1 (stereo not drawn) [GSK1379738A] | 0.9419
19 | COc1ccc(Nc2nccc(N3CCC(NC(=O)Nc4cc(C)ccc4C)C3)n2)cc1 (stereo not drawn) [GSK1379741A] | 1.033

Row | SMILES | fold change in fluorescence relative to zaprinast alone
20 | COc1ccc(Nc2nccc(N3CCC(NC(=O)Nc4cccc(OC)c4)C3)n2)cc1 (stereo not drawn) [GSK1379742A] | 1.221
21 | COc1ccc(Nc2nccc(N3CCC(NC(=O)Nc4ccc5c(c4)OCO5)C3)n2)cc1 (stereo not drawn) [GSK1379745A] | 1.223
22 | COC(=O)c1cccc(NC(=O)NC2CCN(c3ccnc(Nc4ccc(OC)cc4)n3)C2)c1 (stereo not drawn) [GSK1379746A] | 1.123
23 | COc1cc(Nc2nccc(N3CCC(NC(=O)c4cccc(C#N)c4)C3)n2)cc(OC)c1OC (stereo not drawn) [GSK1379751A] | 1.563
24 | COc1cc(Nc2nccc(N3CCC(NC(=O)Nc4cccc(C(C)=O)c4)C3)n2)cc(OC)c1OC (stereo not drawn) [GSK1379753A] | 1.391
25 | COc1cc(Nc2nccc(N3CCC(NC(=O)c4cccc(NC(C)=O)c4)C3)n2)cc(OC)c1OC (stereo not drawn) [GSK1379754A] | 1.271
26 | COc1cc(Nc2nccc(N3CCC(NC(=O)c4cc5ccccc5s4)C3)n2)cc(OC)c1OC (stereo not drawn) [GSK1379760A] | 1.279
27 | COc1cccc(NC(=O)NC2CCN(c3ccnc(Nc4cc(OC)c(OC)c(OC)c4)n3)C2)c1 (stereo not drawn) [GSK1379763A] | 1.269
28 | COc1cc(Nc2nccc(N3CCC(NC(=O)Nc4ccc5c(c4)OCO5)C3)n2)cc(OC)c1OC (stereo not drawn) [GSK1379766A] | 1.478
29 | COC(=O)c1cccc(NC(=O)NC2CCN(c3ccnc(Nc4cc(OC)c(OC)c(OC)c4)n3)C2)c1 (stereo not drawn) [GSK1379767A] | 1.23
30 | COc1ccc(CNC(=O)NC2CCN(c3ccnc(Nc4ccc(F)cc4)n3)CC2)cc1 [GSK1379788A] | 1.01
31 | O=C(Nc1ccccc1F)NC1CCN(c2ccnc(Nc3ccc(F)cc3)n2)CC1 [GSK1379800A] | 0.9564
32 | COc1ccc(Nc2nccc(N3CCC(NC(=O)C(C)c4ccc(Cl)cc4)CC3)n2)cc1 (stereo not drawn) [GSK1379812A] | 1.185
33 | COc1cc(Nc2nccc(N3CCC(NS(=O)(=O)c4ccc(NC(C)=O)cc4)CC3)n2)cc(OC)c1OC [GSK1379825A] | 1.055
34 | O=C(Nc1ccc2c(c1)OCO2)NC1CCN(c2ccnc(NCc3ccc(F)cc3)n2)CC1 [GSK1379859A] | 0.7305
35 | COC(=O)c1cccc(NC(=O)NC2CCN(c3ccnc(NCc4ccc(F)cc4)n3)CC2)c1 [GSK1379860A] | 0.8716
36 | O=C(NCCNc1ccnc(Nc2ccc(F)cc2)n1)c1cc2ccccc2s1 [GSK1379874A] | 0.6895
37 | Cc1ccc(C)c(NC(=O)NCCNc2ccnc(Nc3ccc(F)cc3)n2)c1 [GSK1379878A] | 1.583
38 | COc1cccc(NC(=O)NCCNc2ccnc(Nc3ccc(F)cc3)n2)c1 [GSK1379879A] | 1.178

Row | SMILES | fold change in fluorescence relative to zaprinast alone
39 | O=C(NCCNc1ccnc(Nc2ccc(F)cc2)n1)Nc1ccccc1F [GSK1379880A] | 1.302
40 | O=C(NCCNc1ccnc(Nc2ccc(F)cc2)n1)Nc1ccc2c(c1)OCO2 [GSK1379882A] | 1.425
41 | COC(=O)c1cccc(NC(=O)NCCNc2ccnc(Nc3ccc(F)cc3)n2)c1 [GSK1379883A] | 0.8839
42 | COc1ccc(Nc2nccc(NCCNC(=O)c3cc4ccccc4s3)n2)cc1 [GSK1379896A] | 1.173
43 | COc1ccc(Nc2nccc(NCCNC(=O)Nc3cc(C)ccc3C)n2)cc1 [GSK1379899A] | 1.713
44 | COc1ccc(Nc2nccc(NCCNC(=O)Nc3ccccc3F)n2)cc1 [GSK1379901A] | 0.9014
45 | O=C(NCCNc1ccnc(NCc2ccc(F)cc2)n1)c1cc2ccccc2s1 [GSK1379944A] | 0.7055
46 | CCNCC(Cc1ccccc1)NC(=O)c1cc(Br)c(-c2ccnc3[nH]ccc23)s1 (stereo not drawn) [GSK1383280A] | 0.5995
47 | CC(C)NCC(Cc1ccccc1)NC(=O)c1cc(Br)c(-c2ccnc3[nH]ccc23)s1 (stereo not drawn) [GSK1383281A] | 1.049
48 | COc1ccc(C[C@@H](CN)NC(=O)c2cc(Br)c(-c3ccnc4[nH]ccc34)s2)cc1 [GSK1389063A] | 0.8633
49 | COc1cc(N2CCN(C(C)C)CC2)ccc1Nc1nc(Nc2ccc(F)cc2C(=O)NC[C@@H](O)CO)c2cc[nH]c2n1 [GSK1392956A] | 1.138
50 | Cc1ccc(NC(=O)c2ccc(Cl)c(Cl)c2)cc1-c1ccc(C(=O)Nc2ccncc2)cc1 [GSK1398460A] | 1.557
51 | Cc1ccc(NC(=O)c2cccc(C#N)c2)cc1-c1ccc(C(=O)Nc2ccncc2)cc1 [GSK1398463A] | 1.609
52 | Cc1ccc(NC(=O)Nc2cccc(Cl)c2)cc1-c1ccc(C(=O)Nc2ccncc2)cc1 [GSK1398468A] | 0.4262
53 | Cc1ccc(NC(=O)Nc2ccc(Cl)c(C(F)(F)F)c2)cc1-c1ccc(C(=O)Nc2ccncc2)cc1 [GSK1398470A] | 0.581
54 | Cc1ccc(C)c(NC(=O)Nc2ccc(C)c(-c3ccc(C(=O)Nc4ccncc4)cc3)c2)c1 [GSK1398473A] | 1.092
55 | COc1cccc(NC(=O)Nc2ccc(C)c(-c3ccc(C(=O)Nc4ccncc4)cc3)c2)c1 [GSK1398474A] | 1.231
56 | Cc1cc(-c2ccnc(Nc3cccc(C#N)c3)n2)cc(C)c1O [GSK1440913A] | 0.3868
57 | NC[C@H](Cc1ccc(C(F)(F)F)cc1)NC(=O)c1cc(Br)c(-c2ccnc3[nH]ccc23)s1 [GSK1487252A] | 0.4926
